From the NIST ThermoML archive (doi:10.1016/j.jct.2018.08.033)
± gives the expanded uncertainty stated by the source.

What was measured:
[1] = xn = mol fraction of the nth substance listed; conditions: 100 kPa, Liquid, Vibrating tube method, x2 = 0.9938
[2] = Liquid; for mass density: 100 kPa, Vibrating tube method; for speed of sound: 101.33 kPa, Single path-length method

| Compound | mass density ([1]; 283.15 K) [kg/m3] | mass density ([1]; 288.15 K) [kg/m3] | mass density ([1]; 293.15 K) [kg/m3] | mass density ([1]; 298.15 K) [kg/m3] | mass density ([1]; 303.15 K) [kg/m3] | mass density ([2]; 283.15 K) [kg/m3] | speed of sound ([2]; 283.15 K) [m/s] | mass density ([2]; 288.15 K) [kg/m3] | speed of sound ([2]; 288.15 K) [m/s] | mass density ([2]; 293.15 K) [kg/m3] | speed of sound ([2]; 293.15 K) [m/s] | mass density ([2]; 298.15 K) [kg/m3] | speed of sound ([2]; 298.15 K) [m/s] | mass density ([2]; 303.15 K) [kg/m3] | speed of sound ([2]; 303.15 K) [m/s] |
| --- | --- | --- | --- | --- | --- | --- | --- | --- | --- | --- | --- | --- | --- | --- | --- |
| CCCCOCCCN [3-butoxy-1-propanamine] + O | 996.79 ± 1 | 995.99 ± 1 | 994.84 ± 1 | 993.43 ± 0.99 | 991.89 ± 0.99 |  |  |  |  |  |  |  |  |  |  |
| OCCCO [propan-1,3-diol] |  |  |  |  |  | 1059.63 ± 1.4 | 1658.7 ± 2.4 | 1056.47 ± 1.4 | 1647.2 ± 2.4 | 1053.3 ± 1.4 | 1635.9 ± 2.4 | 1050.14 ± 1.4 | 1624.6 ± 2.4 | 1046.99 ± 1.4 | 1613.3 ± 2.4 |
